Laboratory results taken from patent US10047069B2, “Compositions comprising an inhibitor of lysine specific demethylase-1” (Celgene Quanticel Research, Inc., priority 2015, dated 2018).
Converted amounts (≈) assume the structure as drawn.

What was measured:
[1] = Stability post-storage at 40° C./75% RH assessed by XRPD; format: physicochemical; settings: form change assessed by XRPD
Procedure: Representative samples for the twenty-six forms were further analysed by NMR/IC and DSC. The stability of the samples after storage at 40° C./75% RH was also assessed by XRPD. Solubility in FeSSIF media was determined for selected samples. […] IC was employed to determine the molar equivalence for inorganic counterions, sulphate and phosphate.

[2] = Thermodynamic solubility in FeSSIF; format: physicochemical; settings: for Solubility in FeSSiF: fed state simulated intestinal fluid (FeSSIF), equilibrated at 25° C. for 24 hours; for XRPD of residue: residue of the FeSSIF solubility test, analysed by XRPD as a damp solid
Procedure: Solubility was determined by suspending sufficient compound in fed state simulated intestinal fluid (FeSSIF) to give a maximum final concentration of >3 mg/ml of the parent free-form of the compound. The suspension was equilibrated at 25° C. for 24 hours then the pH was measured. The suspension was then filtered through a glass fibre C filter. The residue was analysed by XRPD as a damp solid. The filtrate was diluted by an appropriate factor prior to analysis by HPLC. Quantitation by HPLC was performed with reference to a standard solution of approximately 0.2 mg/ml in DMSO. Different volumes of the standard, diluted and undiluted sample solutions were injected. The solubility was calculated using the peak areas determined by integration of the peak found at the same retention time as the principal peak in the standard injection. Analysis was performed on an Agilent HP1100 series system equipped with a diode array detector and using ChemStation software vB.04.03.

Row | SMILES | Stability post-storage at 40° C./75% RH [1] | Solubility in FeSSiF [2] [µg/mL] | XRPD of residue [2]
1 | COc1ccc(-c2c(-c3ccc(C#N)c(F)c3)nc(N3CCC(N)CC3)n(C)c2=O)cc1F [SUCA 2, 4-[2-(4-aminopiperidin-1-yl)-5-(3-fluoro-4-methoxyphenyl)-1-methyl-6-oxo-1,6-dihydropyrimidin-4-yl]-2-fluorobenzonitrile] | Pattern change | – | –
2 | COc1ccc(-c2c(-c3ccc(C#N)c(F)c3)nc(N3CCC(N)CC3)n(C)c2=O)cc1F [pTSA 2, 4-[2-(4-aminopiperidin-1-yl)-5-(3-fluoro-4-methoxyphenyl)-1-methyl-6-oxo-1,6-dihydropyrimidin-4-yl]-2-fluorobenzonitrile] | Slight change in pattern | – | –
3 | COc1ccc(-c2c(-c3ccc(C#N)c(F)c3)nc(N3CCC(N)CC3)n(C)c2=O)cc1F [MLNA 1, 4-[2-(4-aminopiperidin-1-yl)-5-(3-fluoro-4-methoxyphenyl)-1-methyl-6-oxo-1,6-dihydropyrimidin-4-yl]-2-fluorobenzonitrile] | Pattern change | – | –
4 | COc1ccc(-c2c(-c3ccc(C#N)c(F)c3)nc(N3CCC(N)CC3)n(C)c2=O)cc1F [free base, 4-[2-(4-aminopiperidin-1-yl)-5-(3-fluoro-4-methoxyphenyl)-1-methyl-6-oxo-1,6-dihydropyrimidin-4-yl]-2-fluorobenzonitrile] | – | 280 (≈ 620 µM) | –
5 | COc1ccc(-c2c(-c3ccc(C#N)c(F)c3)nc(N3CCC(N)CC3)n(C)c2=O)cc1F [FUA 2, 4-[2-(4-aminopiperidin-1-yl)-5-(3-fluoro-4-methoxyphenyl)-1-methyl-6-oxo-1,6-dihydropyrimidin-4-yl]-2-fluorobenzonitrile] | Increased | – | –
6 | COc1ccc(-c2c(-c3ccc(C#N)c(F)c3)nc(N3CCC(N)CC3)n(C)c2=O)cc1F [MA 2, 4-[2-(4-aminopiperidin-1-yl)-5-(3-fluoro-4-methoxyphenyl)-1-methyl-6-oxo-1,6-dihydropyrimidin-4-yl]-2-fluorobenzonitrile] | Pattern change | – | –
7 | COc1ccc(-c2c(-c3ccc(C#N)c(F)c3)nc(N3CCC(N)CC3)n(C)c2=O)cc1F [MLNA 2, 4-[2-(4-aminopiperidin-1-yl)-5-(3-fluoro-4-methoxyphenyl)-1-methyl-6-oxo-1,6-dihydropyrimidin-4-yl]-2-fluorobenzonitrile] | Pattern change | – | –
8 | COc1ccc(-c2c(-c3ccc(C#N)c(F)c3)nc(N3CCC(N)CC3)n(C)c2=O)cc1F [FUA 1, 4-[2-(4-aminopiperidin-1-yl)-5-(3-fluoro-4-methoxyphenyl)-1-methyl-6-oxo-1,6-dihydropyrimidin-4-yl]-2-fluorobenzonitrile] | Pattern change | – | –
9 | COc1ccc(-c2c(-c3ccc(C#N)c(F)c3)nc(N3CCC(N)CC3)n(C)c2=O)cc1F [MSA 2, 4-[2-(4-aminopiperidin-1-yl)-5-(3-fluoro-4-methoxyphenyl)-1-methyl-6-oxo-1,6-dihydropyrimidin-4-yl]-2-fluorobenzonitrile] | Extra peaks observed | – | –
10 | COc1ccc(-c2c(-c3ccc(C#N)c(F)c3)nc(N3CCC(N)CC3)n(C)c2=O)cc1F [SUCA 1, 4-[2-(4-aminopiperidin-1-yl)-5-(3-fluoro-4-methoxyphenyl)-1-methyl-6-oxo-1,6-dihydropyrimidin-4-yl]-2-fluorobenzonitrile] | – | 960 (≈ 2130 µM) | Amorphous
11 | COc1ccc(-c2c(-c3ccc(C#N)c(F)c3)nc(N3CCC(N)CC3)n(C)c2=O)cc1F [PHOA 3, 4-[2-(4-aminopiperidin-1-yl)-5-(3-fluoro-4-methoxyphenyl)-1-methyl-6-oxo-1,6-dihydropyrimidin-4-yl]-2-fluorobenzonitrile] | Reduced crystallinity | – | –
12 | COc1ccc(-c2c(-c3ccc(C#N)c(F)c3)nc(N3CCC(N)CC3)n(C)c2=O)cc1F [BSA 2, 4-[2-(4-aminopiperidin-1-yl)-5-(3-fluoro-4-methoxyphenyl)-1-methyl-6-oxo-1,6-dihydropyrimidin-4-yl]-2-fluorobenzonitrile] | Extra peaks observed | – | –
13 | COc1ccc(-c2c(-c3ccc(C#N)c(F)c3)nc(N3CCC(N)CC3)n(C)c2=O)cc1F [FUA 3, 4-[2-(4-aminopiperidin-1-yl)-5-(3-fluoro-4-methoxyphenyl)-1-methyl-6-oxo-1,6-dihydropyrimidin-4-yl]-2-fluorobenzonitrile] | Pattern change | – | –
14 | COc1ccc(-c2c(-c3ccc(C#N)c(F)c3)nc(N3CCC(N)CC3)n(C)c2=O)cc1F [PHOA 2, 4-[2-(4-aminopiperidin-1-yl)-5-(3-fluoro-4-methoxyphenyl)-1-methyl-6-oxo-1,6-dihydropyrimidin-4-yl]-2-fluorobenzonitrile] | Pattern change | – | –
15 | COc1ccc(-c2c(-c3ccc(C#N)c(F)c3)nc(N3CCC(N)CC3)n(C)c2=O)cc1F [CA 1, 4-[2-(4-aminopiperidin-1-yl)-5-(3-fluoro-4-methoxyphenyl)-1-methyl-6-oxo-1,6-dihydropyrimidin-4-yl]-2-fluorobenzonitrile] | Pattern change | – | –
16 | COc1ccc(-c2c(-c3ccc(C#N)c(F)c3)nc(N3CCC(N)CC3)n(C)c2=O)cc1F [TAR 1, 4-[2-(4-aminopiperidin-1-yl)-5-(3-fluoro-4-methoxyphenyl)-1-methyl-6-oxo-1,6-dihydropyrimidin-4-yl]-2-fluorobenzonitrile] | Pattern change | – | –
17 | COc1ccc(-c2c(-c3ccc(C#N)c(F)c3)nc(N3CCC(N)CC3)n(C)c2=O)cc1F [MA 3, 4-[2-(4-aminopiperidin-1-yl)-5-(3-fluoro-4-methoxyphenyl)-1-methyl-6-oxo-1,6-dihydropyrimidin-4-yl]-2-fluorobenzonitrile] | Pattern change | – | –
18 | COc1ccc(-c2c(-c3ccc(C#N)c(F)c3)nc(N3CCC(N)CC3)n(C)c2=O)cc1F [BA 2, 4-[2-(4-aminopiperidin-1-yl)-5-(3-fluoro-4-methoxyphenyl)-1-methyl-6-oxo-1,6-dihydropyrimidin-4-yl]-2-fluorobenzonitrile] | No significant | – | –
19 | COc1ccc(-c2c(-c3ccc(C#N)c(F)c3)nc(N3CCC(N)CC3)n(C)c2=O)cc1F [MA 1, 4-[2-(4-aminopiperidin-1-yl)-5-(3-fluoro-4-methoxyphenyl)-1-methyl-6-oxo-1,6-dihydropyrimidin-4-yl]-2-fluorobenzonitrile] | Amorphous | 630 (≈ 1400 µM) | Amorphous
20 | COc1ccc(-c2c(-c3ccc(C#N)c(F)c3)nc(N3CCC(N)CC3)n(C)c2=O)cc1F [CA 2, 4-[2-(4-aminopiperidin-1-yl)-5-(3-fluoro-4-methoxyphenyl)-1-methyl-6-oxo-1,6-dihydropyrimidin-4-yl]-2-fluorobenzonitrile] | No form change | – | –
